# Data: US10967167B2, “Using alternating electric fields to increase permeability of the blood brain barrier” (priority 2018, dated 2021)
# Legend:
# rat brain (BBB) [1] = test: Evans Blue accumulation in rat brain after alternating electric fields; assay type: in vivo
# Text: A set of in vivo experiments on rats was also run to quantify the increase in vessel permeability caused by exposure to the alternating electric fields. These experiments used Evans Blue (EB) dye, which is an azo dye that has a very high affinity for serum albumin (molecule size ˜69 kDa). Because of its large molecule size, serum albumin will ordinarily not be able to get past the BBB.
# This was accomplished by shaving each rat's head, positioning a first pair of capacitively coupled electrodes on the top and bottom of the rat's head, and positioning a second pair of capacitively coupled electrodes on the left and right sides of the rat's head. A 100 kHz AC voltage was then applied between the top and bottom electrodes for 1 second, followed by a 100 kHz AC voltage applied between the right and left electrodes for 1 second, in a repeating sequence.
# Under the conditions indicated in Table 1 and for the times indicated on Table 1, EB was injected intravenously into the tail vein under anesthesia (Once injected, EB immediately binds to Albumin), and the EB was allowed to circulate for 2 hours in all cases. The following steps were then performed: (a) intracardiac perfusion with saline; (b) brains are sliced in four pieces with a brain slicer; (c) pieces were photographed to localize staining and weighted; (d) EB extraction after tissue homogenization with TCA 50% (1:3) and centrifuge and (e) EB quantification at 610 nm. Results are given as μg EB per g tissue.
# During the experiment, two animals from group 2 and one animal from group 4 were excluded (disrupted treatment, failure to inject EB into the tail vein). There were no differences between the animals treated with alternating electric fields (groups 1 and 2) and therefore these animals were grouped together. Similarly, there were no differences between sham heat and control animals (groups 3 and 4) and therefore these animals were grouped together.
# EB accumulation in these four specific sections was then measured. In addition, a computer simulation was performed to determine the field strength in each of these four sections. […]
# rat brain (BBB) [2] = test: Dynamic Contrast Enhanced MRI (DCE-MRI) of rat brain; assay type: in vivo
# Experimental: Yet another set of in vivo experiments was performed using Dynamic Contrast Enhanced MRI (DCE-MRI) with intravenous injection of Gadolinium contrast agent (Gd-DTPA, Magnetol, MW 547). In these experiments, test rats were treated with 100 kHz alternating electric fields for 72 h, and control rats were not treated with alternating electric fields for the same period of time. After this 72 h period, the alternating electric field was turned off, the rats were anesthetized, and a series of 60 T1w MRI scans (each of the scans having a duration of 28 seconds) was acquired. The gadolinium contrast agent was injected into the rat's tail vein during the 7th of these 60 scans.
# The image analysis for each rat included (1) determining a baseline for each voxel by calculating the mean of the first six T1w MRI scans for each voxel (i.e., the scans prior to the injection of the gadolinium); (2) computing voxel by voxel, the percent signal change (i.e., gadolinium accumulation) over time relative to the baseline; (3) segmenting the brain into anterior, middle, and posterior segments; (4) generating for each of the three segments the mean percent signal change with respect to the baseline over all the voxels in the respective segment and then (5) averaging 4 consecutive time points (i.e. 4 scans) together. Finally, the data from all of the rats within any given group were averaged together. […]
"average EB accumulation in the rat brain, averaged over all four sections 1-4 (rat brain (BBB) [1]; 100 kHz fields 72 h vs control, p<0.05)","EB accumulation in brain sections 1, 2 (frontal cerebrum) (rat brain (BBB) [1]; 100 kHz fields 72 h vs sham heat/control, EB i.v., 2 h circulation, highest field strength)",SMILES,"EB accumulation in posterior brain sections (3, 4) (rat brain (BBB) [1]; 100 kHz fields 72 h vs sham heat/control, EB i.v., 2 h circulation, lower field strength)","contrast agent accumulation in the brain tissue (percent signal change) (rat brain (BBB) [2]; 100 kHz fields 72 h (n=6) vs control rats (n=3), i.v.)",contrast agent accumulation in the brain tissue (percent signal change) (rat brain (BBB) [2]; 100 kHz fields 72 h followed by 96 hours without fields (n=7) vs control+96 h (n=3))
higher accumulation,statistically significant increase,"Cc1cc(-c2ccc(/N=N/c3ccc4c(S(=O)(=O)O)cc(S(=O)(=O)O)c(N)c4c3O)c(C)c2)ccc1/N=N/c1ccc2c(S(=O)(=O)O)cc(S(=O)(=O)O)c(N)c2c1O [EB, Evans Blue]",smaller increase (that was not statistically significant),–,–
–,–,"O=C([O-])CN(CCN(CC(=O)[O-])CC(=O)O)CCN(CC(=O)[O-])CC(=O)O.[Gd+3] [contrast agent, Gd-DTPA]",–,significantly higher,not significantly different
